Assay results published in the supplement of paper PMC5579334.
± gives the standard deviation of the averaged measurements.

Experiments:
HS-PSS [1] = test: drug sensitivity score (DSS, CellTiter-Glo viability, 72 h) (DSS (dimensionless)); higher = more sensitive; extreme values may be limits of the assay
How it was run: (§1)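 MPNST cell lines and primary human Schwann cells were seeded at 750–1000 cells per well into 384-well plates preprinted with each compound at five concentrations in 10-fold steps, then incubated 72 h at 37 °C, 5% CO2. CellTiter-Glo ATP luminescence gave viability, scaled between vehicle and positive-control wells, with duplicates averaged where present. Curves were fitted with a four-parameter logistic model. Percent inhibition refers to the top concentration, while drug sensitivity score and relative IC50, censored at the top concentration, come from these fits.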

HS-Sch-2 [2] = test: as above
How it was run: as §1

[3] = system: HSC1 (primary human Schwann cells); test: as above
How it was run: as §1

[4] = system: HSC2 (primary human Schwann cells); test: as above
How it was run: as §1

S1507-2 [5] = test: as above
How it was run: as §1

S462 [6] = test: as above
How it was run: as §1

ST8814 [7] = test: as above
How it was run: as §1

STS26T [8] = test: as above
How it was run: as §1

YST-1 [9] = test: as above
How it was run: as §1

HS-PSS [10] = test: drug sensitivity score (DSS, CellTox-Green cytotoxicity, 72 h) (DSS (dimensionless)); higher = more cytotoxic; extreme values may be limits of the assay
How it was run: (§2)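 For 72 h at 37 °C, MPNST cell lines and primary human Schwann cells were exposed in 384-well plates to five 10-fold compound dilutions. CellTox-Green, added before seeding at a final 1:1000 dilution, gave fluorescence from DNA released by disrupted cells. Signals were scaled to vehicle and positive-control wells, cultures failing plate quality control were left out, and four-parameter logistic fits were applied. Relative IC50 and drug sensitivity score were derived from the fits, with IC50 censored at the top concentration.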

[11] = system: HSC1 (primary human Schwann cells); test: as above
How it was run: as §2

[12] = system: HSC2 (primary human Schwann cells); test: as above
How it was run: as §2

S1507-2 [13] = test: as above
How it was run: as §2

ST8814 [14] = test: as above
How it was run: as §2

STS26T [15] = test: as above
How it was run: as §2

HS-PSS [16] = test: % inhibition of CellTiter-Glo viability at highest tested concentration (72 h), relative to DMSO and benzethonium chloride controls; higher = more inhibition
How it was run: as §1

HS-Sch-2 [17] = test: as above
How it was run: as §1

[18] = system: HSC1 (primary human Schwann cells); test: as above
How it was run: as §1

[19] = system: HSC2 (primary human Schwann cells); test: as above
How it was run: as §1

S1507-2 [20] = test: as above
How it was run: as §1

S462 [21] = test: as above
How it was run: as §1

ST8814 [22] = test: as above
How it was run: as §1

STS26T [23] = test: as above
How it was run: as §1

YST-1 [24] = test: as above
How it was run: as §1

Cc1ccc(-c2cc(C(F)(F)F)nn2-c2ccc(S(N)(=O)=O)cc2)cc1 [Celecoxib] (max concentration tested 10000 nM)
drug sensitivity score (HS-PSS [1]): 0 | drug sensitivity score (HS-Sch-2 [2]): 0 | drug sensitivity score [3]: 0.156 | drug sensitivity score [4]: 0 | drug sensitivity score (S1507-2 [5]): 0 | drug sensitivity score (S462 [6]): 0 | drug sensitivity score (ST8814 [7]): 0 | drug sensitivity score (STS26T [8]): 0 | drug sensitivity score (YST-1 [9]): 0 | drug sensitivity score (HS-PSS [10]): 0 | drug sensitivity score [11]: 0 | drug sensitivity score [12]: 0 | drug sensitivity score (S1507-2 [13]): 0 | drug sensitivity score (ST8814 [14]): 0 | drug sensitivity score (STS26T [15]): 0 | % inhibition (HS-PSS [16]): -9.36% | % inhibition (HS-Sch-2 [17]): -1.87% | % inhibition [18]: 11.3% | % inhibition [19]: 3.55% | % inhibition (S1507-2 [20]): -6.68 ± 15% | % inhibition (S462 [21]): 0.832 ± 4.7% | % inhibition (ST8814 [22]): -6.53% | % inhibition (STS26T [23]): -2% | % inhibition (YST-1 [24]): 4.7%

Cc1ccc(Nc2nccc(N(C)c3ccc4c(C)n(C)nc4c3)n2)cc1S(N)(=O)=O [Pazopanib] (max concentration tested 10000 nM)
drug sensitivity score (HS-PSS [1]): 6.09 | drug sensitivity score (HS-Sch-2 [2]): 1.37 | drug sensitivity score [3]: 2.03 | drug sensitivity score [4]: 0.68 | drug sensitivity score (S1507-2 [5]): 0.325 ± 0.46 | drug sensitivity score (S462 [6]): 0 | drug sensitivity score (ST8814 [7]): 0 | drug sensitivity score (STS26T [8]): 0 | drug sensitivity score (YST-1 [9]): 0 | drug sensitivity score (HS-PSS [10]): 0 | drug sensitivity score [11]: 0 | drug sensitivity score [12]: 0 | drug sensitivity score (S1507-2 [13]): 0 | drug sensitivity score (ST8814 [14]): 0 | drug sensitivity score (STS26T [15]): 0 | % inhibition (HS-PSS [16]): 42.6% | % inhibition (HS-Sch-2 [17]): 20.7% | % inhibition [18]: 20.7% | % inhibition [19]: 15.2% | % inhibition (S1507-2 [20]): 9.04 ± 7% | % inhibition (S462 [21]): -0.988 ± 9.1% | % inhibition (ST8814 [22]): -2.02% | % inhibition (STS26T [23]): 7.27% | % inhibition (YST-1 [24]): 0.99%

CC[C@H](Nc1ncnc2[nH]cnc12)c1nc2cccc(F)c2c(=O)n1-c1ccccc1 [Idelalisib] (max concentration tested 10000 nM)
drug sensitivity score (HS-PSS [1]): 0 | drug sensitivity score (HS-Sch-2 [2]): 0 | drug sensitivity score [3]: 0 | drug sensitivity score [4]: 0 | drug sensitivity score (S1507-2 [5]): 7.05 ± 0.49 | drug sensitivity score (S462 [6]): 0 | drug sensitivity score (ST8814 [7]): 0.546 | drug sensitivity score (STS26T [8]): 4.47 | drug sensitivity score (YST-1 [9]): 5.3 | drug sensitivity score (HS-PSS [10]): 0 | drug sensitivity score [11]: 0 | drug sensitivity score [12]: 2.82 | drug sensitivity score (S1507-2 [13]): 0 | drug sensitivity score (ST8814 [14]): 0 | drug sensitivity score (STS26T [15]): 2.81 | % inhibition (HS-PSS [16]): 2.74% | % inhibition (HS-Sch-2 [17]): 3.62% | % inhibition [18]: 14.6% | % inhibition [19]: 9.86% | % inhibition (S1507-2 [20]): 35.2 ± 8.5% | % inhibition (S462 [21]): 19.1 ± 8.8% | % inhibition (ST8814 [22]): 21.2% | % inhibition (STS26T [23]): 49.3% | % inhibition (YST-1 [24]): 46.5%

CCn1c(C(=O)N(C2CC2)C2CC2)cc2c3c(ncn3C)c(Nc3cc(C)n(C)n3)nc21 (max concentration tested 10000 nM)
drug sensitivity score (HS-PSS [1]): 0 | drug sensitivity score (HS-Sch-2 [2]): 0.17 | drug sensitivity score [3]: 0 | drug sensitivity score [4]: 0 | drug sensitivity score (S1507-2 [5]): 0.094 ± 0.13 | drug sensitivity score (S462 [6]): 0 | drug sensitivity score (ST8814 [7]): 0 | drug sensitivity score (STS26T [8]): 0 | drug sensitivity score (YST-1 [9]): 2.34 | drug sensitivity score (HS-PSS [10]): 0 | drug sensitivity score [11]: 0 | drug sensitivity score [12]: 0 | drug sensitivity score (S1507-2 [13]): 0 | drug sensitivity score (ST8814 [14]): 0 | drug sensitivity score (STS26T [15]): 0 | % inhibition (HS-PSS [16]): 8.84% | % inhibition (HS-Sch-2 [17]): 16% | % inhibition [18]: 9.48% | % inhibition [19]: -0.298% | % inhibition (S1507-2 [20]): 3.94 ± 19% | % inhibition (S462 [21]): 0.708 ± 7.6% | % inhibition (ST8814 [22]): 7.29% | % inhibition (STS26T [23]): 2.67% | % inhibition (YST-1 [24]): 29.6%

CNC(=O)c1ccc(N2C(=S)N(c3ccc(C#N)c(C(F)(F)F)c3)C(=O)C2(C)C)cc1F [Enzalutamide] (max concentration tested 10000 nM)
drug sensitivity score (HS-PSS [1]): 0 | drug sensitivity score (HS-Sch-2 [2]): 0 | drug sensitivity score [3]: 0.165 | drug sensitivity score [4]: 0 | drug sensitivity score (S1507-2 [5]): 1.03 ± 1.4 | drug sensitivity score (S462 [6]): 0 | drug sensitivity score (ST8814 [7]): 0.0064 | drug sensitivity score (STS26T [8]): 0 | drug sensitivity score (YST-1 [9]): 0 | drug sensitivity score (HS-PSS [10]): 0 | drug sensitivity score [11]: 0 | drug sensitivity score [12]: 0 | drug sensitivity score (S1507-2 [13]): 2.11 ± 3 | drug sensitivity score (ST8814 [14]): 0 | drug sensitivity score (STS26T [15]): 0 | % inhibition (HS-PSS [16]): 7.35% | % inhibition (HS-Sch-2 [17]): -3.43% | % inhibition [18]: 14.3% | % inhibition [19]: -3.12% | % inhibition (S1507-2 [20]): 14.2 ± 18% | % inhibition (S462 [21]): -3 ± 1.3% | % inhibition (ST8814 [22]): 11.6% | % inhibition (STS26T [23]): 3.2% | % inhibition (YST-1 [24]): 4.16%

COc1cc2nccc(Oc3ccc(NC(=O)C4(C(=O)Nc5ccc(F)cc5)CC4)cc3)c2cc1OC [Cabozantinib] (max concentration tested 1000 nM)
drug sensitivity score (HS-PSS [1]): 1.89 | drug sensitivity score (HS-Sch-2 [2]): 0.13 | drug sensitivity score [3]: 0.225 | drug sensitivity score [4]: 0 | drug sensitivity score (S1507-2 [5]): 4.78 ± 0.14 | drug sensitivity score (S462 [6]): 0.552 ± 0.78 | drug sensitivity score (ST8814 [7]): 2.2 | drug sensitivity score (STS26T [8]): 0.238 | drug sensitivity score (YST-1 [9]): 0 | drug sensitivity score (HS-PSS [10]): 0 | drug sensitivity score [11]: 0 | drug sensitivity score [12]: 0 | drug sensitivity score (S1507-2 [13]): 0 | drug sensitivity score (ST8814 [14]): 0 | drug sensitivity score (STS26T [15]): 0 | % inhibition (HS-PSS [16]): 23% | % inhibition (HS-Sch-2 [17]): 10.9% | % inhibition [18]: 13.2% | % inhibition [19]: 8.9% | % inhibition (S1507-2 [20]): 27.7 ± 7.5% | % inhibition (S462 [21]): 14 ± 4.9% | % inhibition (ST8814 [22]): 21.3% | % inhibition (STS26T [23]): 13.4% | % inhibition (YST-1 [24]): 0.14%
